Experimental findings from ChEMBL document CHEMBL1201862, “PubChem BioAssay data set” (2004) are described below.

Test [1] concerns the target DNA dC->dU-editing enzyme APOBEC-3A (Homo sapiens, UniProt P31941). The test can be described thus: SAR analysis of small molecule inhibitors of APOBEC3A DNA Deaminase via a fluorescence-based single-stranded DNA deaminase assay. Particulars: read-out: IC50_Mean. It is filed as functional.
The target of test [2] is DNA dC->dU-editing enzyme APOBEC-3G (Homo sapiens, UniProt Q9HC16). The test can be described thus: inhibition of APOBEC3G ssDNA deamination – biochemical, fluorescence, single-stranded DNA substrate, SAR follow-up (AID 602136). It is filed as functional. The note with it: read-out: IC50_Mean.
Sequence of DNA dC->dU-editing enzyme APOBEC-3G (Q9HC16 whole entry): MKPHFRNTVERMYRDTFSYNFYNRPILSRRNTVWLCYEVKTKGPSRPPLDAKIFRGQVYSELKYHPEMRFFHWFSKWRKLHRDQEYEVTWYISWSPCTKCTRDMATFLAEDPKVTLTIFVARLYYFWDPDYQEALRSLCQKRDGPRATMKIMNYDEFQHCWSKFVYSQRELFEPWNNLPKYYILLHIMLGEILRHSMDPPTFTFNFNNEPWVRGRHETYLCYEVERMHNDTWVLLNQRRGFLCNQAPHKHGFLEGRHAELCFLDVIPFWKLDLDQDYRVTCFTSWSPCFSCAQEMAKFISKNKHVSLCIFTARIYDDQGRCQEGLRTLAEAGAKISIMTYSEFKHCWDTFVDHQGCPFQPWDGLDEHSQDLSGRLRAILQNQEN
Test [3] is described as follows: Counterscreen for antagonists of the orexin 1 receptor (OX1R; HCRTR1): Fluorescence-based cell-based high throughput dose response assay to identify antagonists of the parental CHO cell line. [Related pubchem assays (depositor defined):AID434989, AID435008, AID463079, AID485270, AID492963, AID492964, AID492965, AID493232, AID504699, AID504701]. It is filed as functional.

The next test relates to CHO-K1. The test can be described thus: Counterscreen for antagonists of the orexin 1 receptor (OX1R; HCRTR1): Homogeneous time resolved fluorescence (HTRF)-based cell-based dose response assay to identify antagonists of the parental CHO-K1 cell line. [Related pubchem assays (depositor defined):AID434989, AID435008, AID463079, AID485270, AID492963, AID492964, AID492965, AID493232, AID504699, AID504701]. It is filed as functional. Particulars: Cricetulus griseus.

Test [4] has as its target T1, Orexin/Hypocretin receptor type 1 (Homo sapiens, UniProt O43613).
T1 sequence (O43613 whole entry): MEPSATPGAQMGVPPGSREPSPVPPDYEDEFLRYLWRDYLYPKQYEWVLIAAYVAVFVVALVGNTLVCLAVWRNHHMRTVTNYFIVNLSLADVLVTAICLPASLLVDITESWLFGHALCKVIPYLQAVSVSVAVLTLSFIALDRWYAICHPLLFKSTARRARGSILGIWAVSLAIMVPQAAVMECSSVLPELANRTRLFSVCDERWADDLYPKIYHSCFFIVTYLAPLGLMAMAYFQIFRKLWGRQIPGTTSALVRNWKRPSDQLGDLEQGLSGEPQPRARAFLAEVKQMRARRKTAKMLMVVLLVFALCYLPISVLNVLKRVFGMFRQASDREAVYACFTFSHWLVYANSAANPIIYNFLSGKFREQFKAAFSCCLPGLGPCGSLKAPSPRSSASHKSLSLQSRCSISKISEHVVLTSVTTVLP
The test is described as follows: Homogeneous Time Resolved Fluorescence (HTRF)-based cell-based high throughput dose response assay for antagonists of the orexin 1 receptor (OX1R; HCRTR1). [Related pubchem assays (depositor defined):AID434989, AID435008, AID463079, AID485270, AID492963, AID492964, AID492965, AID493232, AID504717, AID504718]. It is filed as functional.

Test [5] concerns the target T2, Orexin receptor type 2 (Homo sapiens, UniProt O43614).
T2 sequence (O43614 whole entry): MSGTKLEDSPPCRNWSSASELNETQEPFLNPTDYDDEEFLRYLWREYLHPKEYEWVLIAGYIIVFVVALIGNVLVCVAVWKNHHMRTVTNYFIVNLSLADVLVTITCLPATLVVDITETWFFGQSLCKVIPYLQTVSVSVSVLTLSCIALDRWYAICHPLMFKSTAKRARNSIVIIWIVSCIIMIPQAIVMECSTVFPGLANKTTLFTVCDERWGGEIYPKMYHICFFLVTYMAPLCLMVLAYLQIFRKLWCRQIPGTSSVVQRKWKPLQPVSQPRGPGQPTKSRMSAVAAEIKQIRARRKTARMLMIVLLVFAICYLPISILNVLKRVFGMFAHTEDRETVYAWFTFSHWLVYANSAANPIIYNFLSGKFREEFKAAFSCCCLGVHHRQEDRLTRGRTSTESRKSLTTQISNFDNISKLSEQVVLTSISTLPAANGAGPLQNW
The test can be described thus: Counterscreen assay for antagonists of the orexin 1 receptor (OX1R; HCRTR1): Fluorescence-based cell-based dose response assay for antagonists of the orexin 2 receptor (OX2R; HCRTR2), run by assay provider. It is filed as functional. Background: A counterscreen serves to expose hits that act by an unwanted route or on another target.

In test [6] the target is T2, Orexin receptor type 2. The test is described as follows: Counterscreen assay for antagonists of the orexin 1 receptor (OX1R; HCRTR1): Homogeneous Time Resolved Fluorescence (HTRF)-based cell-based dose response assay for antagonists of the orexin 2 receptor (OX2R; HCRTR2), run by assay provider. It is filed as functional.
The target of test [7] is T1, Orexin/Hypocretin receptor type 1. The test is described as follows: Fluorescence-based cell-based high throughput dose response assay for antagonists of the orexin 1 receptor (OX1R; HCRTR1). [Related pubchem assays (depositor defined):AID434989, AID435008, AID463079, AID485270, AID492963, AID492964, AID492965, AID493232, AID504717, AID504718]. It is filed as functional.

In test [8] the target is Hepatocyte nuclear factor 4-alpha (Homo sapiens, UniProt P41235). It is filed as functional, cell-based.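 Further: biochemical luminescence-based dose-response counterscreen measuring inhibition of HNF4 dimerization, run alongside a screen for blockers of ABHD5–perilipin-5 interaction; split luciferase complementation of HNF4 fusion proteins in cell lysate measuring dimerization.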
Sequence of Hepatocyte nuclear factor 4-alpha (P41235 whole entry, the tested form may be a part): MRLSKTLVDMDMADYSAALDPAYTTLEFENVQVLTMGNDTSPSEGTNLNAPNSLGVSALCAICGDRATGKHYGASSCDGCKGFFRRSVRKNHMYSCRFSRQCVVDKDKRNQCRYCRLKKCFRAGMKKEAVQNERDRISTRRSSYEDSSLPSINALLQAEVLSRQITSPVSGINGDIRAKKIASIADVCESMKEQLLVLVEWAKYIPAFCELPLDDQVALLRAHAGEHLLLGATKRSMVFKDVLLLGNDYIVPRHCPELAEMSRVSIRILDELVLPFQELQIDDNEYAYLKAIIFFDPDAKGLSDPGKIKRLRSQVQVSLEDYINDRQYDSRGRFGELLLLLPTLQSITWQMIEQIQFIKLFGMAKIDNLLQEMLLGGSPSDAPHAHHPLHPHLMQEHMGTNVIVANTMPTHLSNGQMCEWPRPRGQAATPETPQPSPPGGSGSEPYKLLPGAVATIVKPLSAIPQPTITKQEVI
Test [9] has as its target ATP-binding cassette sub-family B member 6 (Homo sapiens, UniProt Q9NP58). The test is described as follows: concentration-dependent ABCB6 porphyrin transport blockade – K562-ABCB6 cells, flow cytometry, cherry pick 1, dose response (AID 623955). It is filed as functional. Particulars: read-out: EC50_MICROM. (In flow cytometry, cells or beads pass a laser one at a time.)

Another test deals with T3, Protein RecA (Mycobacterium tuberculosis, UniProt P9WHJ3).
T3 sequence (P9WHJ3 whole entry): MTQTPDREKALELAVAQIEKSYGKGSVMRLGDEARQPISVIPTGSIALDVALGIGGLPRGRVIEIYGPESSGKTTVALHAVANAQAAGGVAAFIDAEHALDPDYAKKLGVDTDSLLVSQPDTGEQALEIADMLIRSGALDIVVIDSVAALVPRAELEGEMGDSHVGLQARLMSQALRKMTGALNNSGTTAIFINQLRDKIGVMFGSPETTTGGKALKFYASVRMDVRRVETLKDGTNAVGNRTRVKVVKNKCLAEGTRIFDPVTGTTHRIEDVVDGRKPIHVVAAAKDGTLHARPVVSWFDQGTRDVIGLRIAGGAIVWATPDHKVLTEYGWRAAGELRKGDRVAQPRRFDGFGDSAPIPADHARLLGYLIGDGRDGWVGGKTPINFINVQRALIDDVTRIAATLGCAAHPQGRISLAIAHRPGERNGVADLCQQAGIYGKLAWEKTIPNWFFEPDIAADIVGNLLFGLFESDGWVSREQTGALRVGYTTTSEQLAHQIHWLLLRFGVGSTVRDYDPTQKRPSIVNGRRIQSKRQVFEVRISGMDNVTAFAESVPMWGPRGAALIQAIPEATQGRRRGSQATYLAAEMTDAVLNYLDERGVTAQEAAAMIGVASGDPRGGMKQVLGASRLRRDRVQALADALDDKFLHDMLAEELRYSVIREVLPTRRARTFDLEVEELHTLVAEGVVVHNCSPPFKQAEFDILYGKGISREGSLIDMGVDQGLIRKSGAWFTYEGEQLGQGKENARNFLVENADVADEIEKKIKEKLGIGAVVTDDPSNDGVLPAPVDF
The test is described as follows: Fluorescence Cell-Free Homogeneous Dose Retest to Identify Inhibitors of RecA-Intein Splicing Activity. [Related pubchem assays (depositor defined):AID2097, AID2223, AID489010, AID492950]. It is filed as functional.

In test [10] the target is T4, Replicative DNA helicase DnaB (Mycobacterium tuberculosis, UniProt P9WMR3).
T4 sequence (P9WMR3 whole entry): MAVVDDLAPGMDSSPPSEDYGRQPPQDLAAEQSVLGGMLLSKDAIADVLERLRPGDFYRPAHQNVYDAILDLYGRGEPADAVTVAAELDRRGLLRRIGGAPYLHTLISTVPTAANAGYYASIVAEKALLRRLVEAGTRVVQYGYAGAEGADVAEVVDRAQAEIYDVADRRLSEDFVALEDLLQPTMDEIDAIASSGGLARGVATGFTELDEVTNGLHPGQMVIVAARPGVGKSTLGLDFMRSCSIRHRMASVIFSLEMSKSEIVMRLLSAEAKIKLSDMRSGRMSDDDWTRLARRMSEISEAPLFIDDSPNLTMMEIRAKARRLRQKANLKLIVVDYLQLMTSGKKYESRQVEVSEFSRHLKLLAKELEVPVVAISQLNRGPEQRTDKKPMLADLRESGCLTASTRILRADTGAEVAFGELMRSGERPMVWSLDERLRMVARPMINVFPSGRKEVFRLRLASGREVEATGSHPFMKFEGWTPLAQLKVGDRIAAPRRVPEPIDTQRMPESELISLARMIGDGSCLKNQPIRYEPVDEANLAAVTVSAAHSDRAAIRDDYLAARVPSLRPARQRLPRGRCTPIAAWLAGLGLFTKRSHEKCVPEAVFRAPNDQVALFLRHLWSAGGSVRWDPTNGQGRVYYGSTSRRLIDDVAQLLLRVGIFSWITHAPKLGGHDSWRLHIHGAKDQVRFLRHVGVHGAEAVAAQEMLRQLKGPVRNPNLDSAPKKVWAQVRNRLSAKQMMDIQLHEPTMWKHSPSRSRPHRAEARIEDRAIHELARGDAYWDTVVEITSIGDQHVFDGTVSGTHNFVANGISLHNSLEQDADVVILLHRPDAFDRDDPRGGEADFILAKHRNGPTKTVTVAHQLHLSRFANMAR
The test is described as follows: DnaB intein splicing inhibitors, dose response, biochemical, cell-free fluorescence (AID 449749). It is filed as functional.

Test [11] concerns the target FAD-linked sulfhydryl oxidase ALR (Homo sapiens, UniProt P55789). The test can be described thus: ALR-catalysed DTT oxidation blockers – biochemical, H2O2 detection, luminescence, cherry-pick, dose response (AID 493248).
Test [12] addresses Potassium voltage-gated channel subfamily KQT member 2 (Rattus norvegicus, UniProt O88943). The test is described as follows: blockers of KCNQ2 channel current – cell-based, automated electrophysiology, set II, rat KCNQ2, dose response (AID 588637). It is filed as functional.
Test [13] concerns the target T5, Calpain-2 catalytic subunit (Sus scrofa, UniProt P43367).
T5 sequence (P43367 whole entry): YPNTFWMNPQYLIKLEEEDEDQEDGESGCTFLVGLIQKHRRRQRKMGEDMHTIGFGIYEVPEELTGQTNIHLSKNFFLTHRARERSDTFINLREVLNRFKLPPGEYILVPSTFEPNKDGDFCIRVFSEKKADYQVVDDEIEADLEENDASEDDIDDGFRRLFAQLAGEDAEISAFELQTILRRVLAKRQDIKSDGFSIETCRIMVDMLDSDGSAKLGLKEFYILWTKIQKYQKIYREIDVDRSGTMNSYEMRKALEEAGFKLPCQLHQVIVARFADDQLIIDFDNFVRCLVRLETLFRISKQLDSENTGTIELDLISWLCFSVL
The test can be described thus: m-calpain protease blockers, concentration series – biochemical, fluorogenic peptide substrate, dose response (AID 1420). It is filed as functional.

Test [14] addresses Tyrosine-protein phosphatase non-receptor type 5 (Homo sapiens, UniProt P54829). The test is described as follows: PTPN5 enzyme inhibition – biochemical, fluorescence intensity, uHTS hits, confirmation (AID 602372). It is filed as functional. Particulars: read-out: IC50_Mean.
For test [15], the target named is Dual specificity protein phosphatase 3 (Homo sapiens, UniProt P51452). The test can be described thus: VHR phosphatase inhibition, dose response, selectivity assay for STEP inhibitor project, biochemical (AID 602374). It is filed as functional. Particulars: read-out: IC50_Mean.
Sequence of Dual specificity protein phosphatase 3 (P51452 whole entry): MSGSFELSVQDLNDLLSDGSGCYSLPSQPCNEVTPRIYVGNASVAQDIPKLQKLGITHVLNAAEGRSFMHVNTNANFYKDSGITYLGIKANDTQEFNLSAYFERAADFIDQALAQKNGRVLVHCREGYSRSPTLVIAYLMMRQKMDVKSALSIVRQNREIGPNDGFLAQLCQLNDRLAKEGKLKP
Test [16] has as its target Tyrosine-protein phosphatase non-receptor type 11 (Homo sapiens, UniProt Q06124). The test can be described thus: PTPN11 enzyme inhibitors – biochemical, selectivity assay for STEP inhibitor project, dose response (AID 602367). It is filed as functional. The note with it: read-out: IC50_Mean.
For test [17], the target named is DNA (cytosine-5)-methyltransferase 1 (Homo sapiens, UniProt P26358). The test is described as follows: inhibition of DNA methylation by DNMT1 – biochemical, fluorescent molecular beacon, confirmation (AID 602386). It is filed as functional.
Sequence of DNA (cytosine-5)-methyltransferase 1 (P26358 whole entry): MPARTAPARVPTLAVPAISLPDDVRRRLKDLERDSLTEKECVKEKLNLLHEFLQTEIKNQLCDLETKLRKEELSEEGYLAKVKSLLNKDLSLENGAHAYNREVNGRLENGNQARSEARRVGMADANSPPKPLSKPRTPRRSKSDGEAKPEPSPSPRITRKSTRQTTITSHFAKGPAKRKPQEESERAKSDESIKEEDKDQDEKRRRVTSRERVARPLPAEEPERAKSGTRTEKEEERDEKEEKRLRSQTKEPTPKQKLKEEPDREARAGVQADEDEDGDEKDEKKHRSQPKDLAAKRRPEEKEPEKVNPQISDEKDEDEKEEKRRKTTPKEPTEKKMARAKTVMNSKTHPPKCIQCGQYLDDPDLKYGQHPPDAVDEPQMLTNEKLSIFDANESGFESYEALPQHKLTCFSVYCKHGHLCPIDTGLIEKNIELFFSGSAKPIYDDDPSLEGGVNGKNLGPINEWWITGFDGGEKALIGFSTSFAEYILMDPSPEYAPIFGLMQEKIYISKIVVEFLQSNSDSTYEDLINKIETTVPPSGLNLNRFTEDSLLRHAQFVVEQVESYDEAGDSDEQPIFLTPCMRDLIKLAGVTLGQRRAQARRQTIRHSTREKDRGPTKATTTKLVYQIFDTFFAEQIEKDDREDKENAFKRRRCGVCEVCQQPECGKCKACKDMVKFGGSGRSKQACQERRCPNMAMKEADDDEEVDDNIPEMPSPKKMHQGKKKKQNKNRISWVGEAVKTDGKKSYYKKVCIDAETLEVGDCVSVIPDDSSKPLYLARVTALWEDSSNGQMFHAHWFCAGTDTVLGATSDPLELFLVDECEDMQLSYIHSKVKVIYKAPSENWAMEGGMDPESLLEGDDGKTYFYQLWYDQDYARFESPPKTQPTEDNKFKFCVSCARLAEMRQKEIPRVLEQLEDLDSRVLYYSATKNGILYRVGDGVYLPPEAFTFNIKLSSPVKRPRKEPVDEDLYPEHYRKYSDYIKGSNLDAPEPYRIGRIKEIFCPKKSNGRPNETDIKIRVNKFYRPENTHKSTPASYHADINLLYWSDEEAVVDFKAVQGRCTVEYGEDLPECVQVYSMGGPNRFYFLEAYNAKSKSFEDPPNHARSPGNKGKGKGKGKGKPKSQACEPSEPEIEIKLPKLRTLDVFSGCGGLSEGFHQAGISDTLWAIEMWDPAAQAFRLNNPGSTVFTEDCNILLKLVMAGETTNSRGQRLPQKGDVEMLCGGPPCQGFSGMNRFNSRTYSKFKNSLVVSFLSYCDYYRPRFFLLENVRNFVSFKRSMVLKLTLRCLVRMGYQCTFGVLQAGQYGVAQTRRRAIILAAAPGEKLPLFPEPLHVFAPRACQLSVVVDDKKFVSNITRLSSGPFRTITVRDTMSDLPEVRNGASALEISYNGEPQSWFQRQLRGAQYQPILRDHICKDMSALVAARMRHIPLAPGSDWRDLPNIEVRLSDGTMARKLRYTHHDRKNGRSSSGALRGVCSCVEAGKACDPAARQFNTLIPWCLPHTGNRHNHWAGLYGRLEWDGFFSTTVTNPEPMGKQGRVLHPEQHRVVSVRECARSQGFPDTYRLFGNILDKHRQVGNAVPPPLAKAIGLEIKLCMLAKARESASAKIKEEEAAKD

Calls of active or inactive are those of the source. Bounds are passed on as bounds.

Sequence of DNA dC->dU-editing enzyme APOBEC-3A (P31941 whole entry): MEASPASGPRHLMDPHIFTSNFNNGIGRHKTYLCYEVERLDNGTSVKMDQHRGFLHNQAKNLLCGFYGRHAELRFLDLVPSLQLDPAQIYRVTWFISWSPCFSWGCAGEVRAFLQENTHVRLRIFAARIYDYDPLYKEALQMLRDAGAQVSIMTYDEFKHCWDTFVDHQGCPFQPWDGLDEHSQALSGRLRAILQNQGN
Sequence of Tyrosine-protein phosphatase non-receptor type 11 (Q06124 whole entry): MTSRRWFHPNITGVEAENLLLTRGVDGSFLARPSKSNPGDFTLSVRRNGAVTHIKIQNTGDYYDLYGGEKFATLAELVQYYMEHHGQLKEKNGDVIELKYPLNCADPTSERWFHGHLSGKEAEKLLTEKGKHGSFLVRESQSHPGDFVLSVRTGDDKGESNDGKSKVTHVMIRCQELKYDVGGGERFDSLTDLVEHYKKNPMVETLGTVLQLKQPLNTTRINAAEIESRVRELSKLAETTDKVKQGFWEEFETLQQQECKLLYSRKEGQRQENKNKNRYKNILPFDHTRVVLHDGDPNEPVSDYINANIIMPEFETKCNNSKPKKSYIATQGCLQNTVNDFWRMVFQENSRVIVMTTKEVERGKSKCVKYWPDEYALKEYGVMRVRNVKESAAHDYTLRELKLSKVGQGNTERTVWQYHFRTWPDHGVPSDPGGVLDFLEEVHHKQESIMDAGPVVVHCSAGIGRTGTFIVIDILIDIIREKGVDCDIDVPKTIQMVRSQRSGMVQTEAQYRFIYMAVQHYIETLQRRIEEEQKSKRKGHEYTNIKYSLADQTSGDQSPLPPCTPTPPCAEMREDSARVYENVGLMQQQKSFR
Sequence of ATP-binding cassette sub-family B member 6 (Q9NP58 whole entry): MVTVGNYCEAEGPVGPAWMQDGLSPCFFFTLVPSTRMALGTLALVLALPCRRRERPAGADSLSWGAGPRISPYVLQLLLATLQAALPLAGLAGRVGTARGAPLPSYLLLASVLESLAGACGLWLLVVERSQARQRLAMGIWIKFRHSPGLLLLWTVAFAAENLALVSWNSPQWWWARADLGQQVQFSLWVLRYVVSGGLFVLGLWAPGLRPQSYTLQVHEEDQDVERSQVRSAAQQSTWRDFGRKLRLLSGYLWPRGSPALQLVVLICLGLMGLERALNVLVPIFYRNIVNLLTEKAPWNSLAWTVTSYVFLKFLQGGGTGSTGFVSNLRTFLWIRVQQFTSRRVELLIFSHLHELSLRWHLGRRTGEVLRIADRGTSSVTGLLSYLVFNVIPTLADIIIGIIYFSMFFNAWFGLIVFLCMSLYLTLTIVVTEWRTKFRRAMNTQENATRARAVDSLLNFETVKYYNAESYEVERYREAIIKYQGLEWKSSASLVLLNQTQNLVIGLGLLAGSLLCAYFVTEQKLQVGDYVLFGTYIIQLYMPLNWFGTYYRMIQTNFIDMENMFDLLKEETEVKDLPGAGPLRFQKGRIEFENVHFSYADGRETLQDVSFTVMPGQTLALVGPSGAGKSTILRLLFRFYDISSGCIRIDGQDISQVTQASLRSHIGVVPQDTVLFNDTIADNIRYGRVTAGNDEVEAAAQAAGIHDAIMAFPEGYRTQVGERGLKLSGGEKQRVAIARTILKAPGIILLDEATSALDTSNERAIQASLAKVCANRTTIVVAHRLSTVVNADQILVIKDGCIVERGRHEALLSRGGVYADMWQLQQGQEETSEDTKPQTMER
Sequence of FAD-linked sulfhydryl oxidase ALR (P55789 whole entry): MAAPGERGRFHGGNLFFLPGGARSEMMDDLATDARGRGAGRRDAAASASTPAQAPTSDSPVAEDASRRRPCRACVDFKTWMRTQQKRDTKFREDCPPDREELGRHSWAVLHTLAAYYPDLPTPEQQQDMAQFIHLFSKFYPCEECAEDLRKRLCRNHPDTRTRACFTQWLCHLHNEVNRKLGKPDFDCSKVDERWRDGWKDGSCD

As for `Cc1ccc(Cl)c2c1N[C@@H](c1ccccc1Br)[C@H]1CC=C[C@@H]21`, the IC50 in [1] and in test [2] was > 99 µM (inactive) each time.

With `N#CC(=C1CCCC1)c1nc(-c2ccccc2O)cs1`, the IC50 in test [3] was > 49.7 µM (inactive); with CHO-K1, > 66.2 µM (inactive); in [4], 6.33 µM (active); at Orexin receptor type 2 [5], 31.6 µM (inactive); on Orexin receptor type 2 [6] it was 19.8 µM (inactive); in [7], 6.43 µM (active).

Take `CC(C)(C)NC(=O)C(c1ccc(-c2ccccc2)cc1)n1c(=O)c(-c2ccco2)nc2ccccc21` (configuration not stated): in test [8], the IC50 is 1.91 µM (active).

In the case of `CCc1ccc(Nc2nc(Nc3ccc(OC)cc3)nc(N3CCCC3)n2)cc1`, the IC50 in test [1] and in [2] was > 99 µM (inactive) in each case.

Broadly, the AC50 is the concentration giving half of the maximal activity seen. Take `Cc1cccc(CS(=O)(=O)c2ncc(Cl)c(C(=O)Nc3c(C)cccc3C)n2)c1`: the EC50 in test [9] is 74.5 µM (active); at Protein RecA it was 4.66 µM (active). Further, the AC50 in [10] was 4.28 µM (active); in test [11] it was 0.164 µM (active).

As for `CCc1nc2ccc(F)cc2c(C(=O)NC2CCCCC2C)c1C` (configuration not stated), the IC50 in [12] was 0.636 µM (active).

Turning to `O=C(CSc1ccc(-c2ccccc2)nn1)c1cccs1`, the IC50 in [3] was > 49.8 µM (inactive); in [13], > 50 µM (not active); in the test on CHO-K1 it was > 66.2 µM (inactive); in test [4] it was 1.08 µM (active); on Orexin receptor type 2 [5], > 88.8 µM (inactive); at Orexin receptor type 2 [6] it was > 50 µM (inactive). For the same compound, the IC50 in [7] is 3.37 µM (active).

Regarding `O=C(NC1CCCCCC1)C(=S)NC1CCCCC1`, the IC50 was 56.9 µM (inactive) in test [14], 3.07 µM (active) in test [15] and 9.88 µM (active) in test [16].

Consider `Cc1ccc2cc3c(N)c4c(C)ccc(C)c4nc3nc2c1`, for which the IC50 in test [17] is > 99 µM (inactive).
